# Values joined by “and” are separate entries in the source; they are usually repeats but may differ in a detail not shown here. Identical values can stand only once.
# Key:
# [1] = in vivo
# Protocol: The RP2D was defined as the MTD.
# The treatment schedule was modified as there was concern on tolerability of longer dosing in patients with underlying cirrhosis. […] Study treatment was continued until disease progression or unacceptable toxicity.
# Safety assessments were done at baseline, on cycle 1 days 1 and 15, and on day 1 of each cycle thereafter. Tumour assessments were performed by computed tomography or magnetic resonance imaging at baseline and every 8 weeks thereafter. Confirmatory imaging was performed within 6 weeks in patients with complete response or partial response. AEs were assessed using the National Cancer Institute Common Terminology Criteria for Adverse Events (CTCAE) v4.0. Blood sample collection for pharmacokinetic (PK) and pharmacodynamic (PD) analysis was performed on cycle 1 days 1 and 15 pre-dose as well as 2 and 4 h post dose.
# c-kit = details: in vitro; read-out: half-maximal inhibitory concentration, c-kit phosphorylation; cited from earlier work
# SK-HEP-1 cells = details: cited from earlier work
# advanced HCC = experiment: phase 1b/2 study, antineoplastic efficacy (RECIST 1.1, PFS, OS); format: in vivo, patients
# Protocol: This was a phase 1b/2, open-label, single-arm multicentre clinical trial. Subjects were accrued at Roswell Park Comprehensive Cancer Centre (RPCI) and Case Comprehensive Cancer Centre. The respective institutional review board (IRB) approved the protocol at each site. The study was conducted according to the principles of the Declaration of Helsinki, the International Conference on Harmonisation and the Guidelines for Good Clinical Practice. All patients provided written informed consent. The trial was registered with ClinicalTrials.gov (NCT01835223).
# Secondary objectives included determination of safety and the PK/PD of tivozanib in patients with advanced HCC. The primary endpoint was PFS at 24 weeks. PFS and not ORR were selected because at the time of study inception PFS or time to progression were acceptable primary efficacy endpoints in early phase HCC studies in view of very low ORR with anti-VEGFR agents. Patients who remained alive and without evidence of disease progression per RECIST 1.1 for at least 24 weeks after enrolment were considered as PFS responders. Secondary endpoints were AEs by CTCAE v4.0, steady state PK, ORR, OS, change in HBV or HCV viral load, serum α-fetoprotein (AFP), and changes in soluble VEGFR-2 (sVEGFR-2).
# Using the 3+3 design, the MTD was the DL with probability of DLT 33% or higher. With three dose levels, between 6 and 18 patients were required to complete the phase 1b portion. In terms of antineoplastic efficacy, the true progression rate of less than p0 = 0.50 was considered unacceptable and evidence of such will deem the treatment not worthy of further study. The null and alternative hypotheses tested were H0: p = p0 vs. H1: p > p0. With this two-stage design, a potential total of 37 patients was required to achieve 80% power to detect a difference of at least 20% with a type I error of 5%. Using a two-stage design, a total of 19 patients were planned to be enrolled initially, including the phase 1b patients treated at the MTD/RP2D. If nine or fewer PFS responses were observed, the therapy would be deemed ineffective and the study would end. Otherwise, an additional 18 patients would be enrolled. If 23 or fewer PFS responses are observed in the total efficacy population, therapy would be deemed ineffective; otherwise, it will be concluded that the therapy is promising. The differences on outcomes between study groups were compared by non-parametric Kruskal–Wallis test and Fisher’s/χ^2 test. OS and PFS were estimated by the Kaplan–Meier method and compared by log-rank test. All tests were two sided and performed at a nominal significance level of 0.05. SAS version 9.4 (SAS Institute, Cary, NC) is used for statistical analyses.
# [2] = RP2D 1 mg, efficacy population N = 19
compound,measurement,setting,value
COc1cc2nccc(Oc3ccc(NC(=O)Nc4cc(C)on4)c(Cl)c3)c2cc1OC [tivozanib],"Decreased appetite, grade 3 and 4",[1]; human,3.7%
same,"Diarrhoea, grade 3–4",[1]; human,0%
same,"Dysphonia, grade 3 and 4",[1]; human,0%
same,"Fatigue, grade 3–4",[1]; human,26%
same,"Hypertension, grade 3 and 4",[1]; human,11%
same,"Increased bilirubin, grade 3 and 4",[1]; human,7.4%
same,"Nausea, grade 3 and 4",[1]; human,0%
same,"PPEDS (palmar–plantar erythrodysesthesia syndrome), Total",[1]; human,11%
same,"PPEDS, Total",[1]; human,3 n
same,"Palmar–plantar erythrodysesthesia, grade 3 and 4",[1]; human,3.7%
same,"Stomatitis, grade 3 and 4",[1]; human,0%
same,"Vomiting, grade 3 and 4",[1]; human,0%
same,dose reductions for toxicity,[1],six
same,permanently discontinued from study treatment for toxicity,[1],four
same,tolerability,[1],well tolerated
same,IC50,c-kit,1.63 nM
same,tumour growth inhibition,SK-HEP-1 cells; daily oral 0.2 mg/kg for 2 weeks,~60%
same,tumour inhibition,SK-HEP-1 cells; daily oral 1 mg/kg,~90%
same,24-week PFS probability,"advanced HCC; Kaplan–Meier, N = 19",58%
same,1-year OS rate,advanced HCC; N = 19,40%
same,2-year OS rate,advanced HCC; N = 19,30%
same,overall disease control rate,"advanced HCC; RECIST 1.1, N = 19",63%
same,PFS responders at 24 weeks (6-month PFS),"advanced HCC; RP2D 1 mg, N = 19",47.3%
same,"overall response rate (PR, RECIST 1.1)","advanced HCC; RP2D 1 mg, N = 19",21%
same,median OS,advanced HCC; [2],9 months and 9.0 months
same,median PFS,advanced HCC; [2],24 weeks

# Source: PMC7109127 (British Journal of Cancer, 2020)
